# Measured values reported in ChEMBL document CHEMBL3885881, “DrugMatrix”.
# Species on record: Rattus norvegicus
# Assay: DrugMatrix - Regimen: Daily Repeat
# Type: toxicity, organism-based, Sprague-Dawley
# Set-up: regimen Daily Repeat, gender Male, age 6-8 weeks
# Settings: in vivo, po, route oral GAVAGE, vehicle 60 % PEG400; for URIC ACID / ALANINE AMINOTRANSFERASE / ALBUMIN / ALKALINE PHOSPHATASE / ASPARTATE AMINOTRANSFERASE / BLOOD UREA NITROGEN / CARBON DIOXIDE / CHLORIDE / CHOLESTEROL / CREATINE PHOSPHOKINASE / CREATININE / GLUCOSE / LACTATE DEHYDROGENASE / LIPASE / PHOSPHORUS / POTASSIUM / SODIUM / TOTAL BILIRUBIN / TOTAL PROTEIN: tissue Plasma; for ABSOLUTE BASOPHIL / ABSOLUTE EOSINOPHIL / ABSOLUTE LYMPHOCYTE / ABSOLUTE MONOCYTE / ABSOLUTE SEGMENTED NEUTROPHIL / BASOPHIL / EOSINOPHIL / ERYTHROCYTE COUNT / HEMATOCRIT / HEMOGLOBIN / LEUKOCYTE COUNT / LYMPHOCYTE / MEAN CORPUSCULAR HEMOGLOBIN / MEAN CORPUSCULAR HEMOGLOBIN CONCENTRATION / MEAN CORPUSCULAR VOLUME / MONOCYTE / NEUTROPHIL / NUCLEATED RED BLOOD CELLS / PLATELET COUNT: tissue Blood
# [1] = 0.001 mg/kg, 120 h, dose level Low, time 5 day
# [2] = 0.1 mg/kg, 72 h, dose level High, time 3 day
# [3] = 0.1 mg/kg, 120 h, dose level High, time 5 day
smiles,measurement,setting,value
N[C@@H](Cc1cc(I)c(Oc2ccc(O)c(I)c2)c(I)c1)C(=O)O [LIOTHYRONINE],URIC ACID,"0.001 mg/kg, 72 h, dose level Low, time 3 day",1.37 mg/dL
same,ABSOLUTE BASOPHIL,[1],0 CELLS/uL
same,ABSOLUTE EOSINOPHIL,[1],0 CELLS/uL
same,ABSOLUTE LYMPHOCYTE,[1],5590 CELLS/uL
same,ABSOLUTE MONOCYTE,[1],0 CELLS/uL
same,ABSOLUTE SEGMENTED NEUTROPHIL,[1],543.33 CELLS/uL
same,BASOPHIL,[1],0%
same,EOSINOPHIL,[1],0%
same,ERYTHROCYTE COUNT,[1],5.59 x10E6/uL
same,HEMATOCRIT,[1],33.3%
same,HEMOGLOBIN,[1],12.43 G/DL
same,LEUKOCYTE COUNT,[1],6.13 x10E3/uL
same,LYMPHOCYTE,[1],91%
same,MEAN CORPUSCULAR HEMOGLOBIN,[1],22.27 pg
same,MEAN CORPUSCULAR HEMOGLOBIN CONCENTRATION,[1],37.37 G/DL
same,MEAN CORPUSCULAR VOLUME,[1],59.57 fL
same,MONOCYTE,[1],0%
same,NEUTROPHIL,[1],9%
same,NUCLEATED RED BLOOD CELLS,[1],0.67 /100WBC
same,PLATELET COUNT,[1],972.33 x10E3/uL
same,ALANINE AMINOTRANSFERASE,[1],52.67 u/L
same,ALBUMIN,[1],4.57 G/DL
same,ALKALINE PHOSPHATASE,[1],421 u/L
same,ASPARTATE AMINOTRANSFERASE,[1],80.33 u/L
same,BLOOD UREA NITROGEN,[1],15.33 mg/dL
same,CARBON DIOXIDE,[1],31 mmol/L
same,CHLORIDE,[1],100.33 MEQ/L
same,CHOLESTEROL,[1],86 mg/dL
same,CREATINE PHOSPHOKINASE,[1],257.67 u/L
same,CREATININE,[1],0.19 mg/dL
same,GLUCOSE,[1],174.33 mg/dL
same,LACTATE DEHYDROGENASE,[1],98.33 u/L
same,LIPASE,[1],8.33 u/L
same,PHOSPHORUS,[1],12.67 mg/dL
same,POTASSIUM,[1],6.56 MEQ/L
same,SODIUM,[1],144.9 MEQ/L
same,TOTAL BILIRUBIN,[1],0.1 mg/dL
same,URIC ACID,[1],2.23 mg/dL
same,ABSOLUTE BASOPHIL,[2],0 CELLS/uL
same,ABSOLUTE EOSINOPHIL,[2],0 CELLS/uL
same,ABSOLUTE LYMPHOCYTE,[2],13461.67 CELLS/uL
same,ABSOLUTE MONOCYTE,[2],261.67 CELLS/uL
same,ABSOLUTE SEGMENTED NEUTROPHIL,[2],1443.33 CELLS/uL
same,BASOPHIL,[2],0%
same,EOSINOPHIL,[2],0%
same,ERYTHROCYTE COUNT,[2],6.02 x10E6/uL
same,HEMATOCRIT,[2],37%
same,HEMOGLOBIN,[2],14.37 G/DL
same,LEUKOCYTE COUNT,[2],15.17 x10E3/uL
same,LYMPHOCYTE,[2],89.33%
same,MEAN CORPUSCULAR HEMOGLOBIN,[2],23.9 pg
same,MEAN CORPUSCULAR HEMOGLOBIN CONCENTRATION,[2],38.8 G/DL
same,MEAN CORPUSCULAR VOLUME,[2],61.5 fL
same,MONOCYTE,[2],1.67%
same,NEUTROPHIL,[2],9%
same,NUCLEATED RED BLOOD CELLS,[2],0 /100WBC
same,PLATELET COUNT,[2],889 x10E3/uL
same,ALANINE AMINOTRANSFERASE,[2],70.67 u/L
same,ALBUMIN,[2],4.1 G/DL
same,ALKALINE PHOSPHATASE,[2],525 u/L
same,ASPARTATE AMINOTRANSFERASE,[2],112 u/L
same,BLOOD UREA NITROGEN,[2],14.67 mg/dL
same,CARBON DIOXIDE,[2],26.67 mmol/L
same,CHLORIDE,[2],104 MEQ/L
same,CHOLESTEROL,[2],88 mg/dL
same,CREATINE PHOSPHOKINASE,[2],402.67 u/L
same,CREATININE,[2],0.19 mg/dL
same,GLUCOSE,[2],148.67 mg/dL
same,LACTATE DEHYDROGENASE,[2],156.67 u/L
same,LIPASE,[2],14 u/L
same,PHOSPHORUS,[2],15.67 mg/dL
same,POTASSIUM,[2],7.38 MEQ/L
same,SODIUM,[2],147 MEQ/L
same,TOTAL BILIRUBIN,[2],0.13 mg/dL
same,TOTAL PROTEIN,[2],5.67 G/DL
same,URIC ACID,[2],2.47 mg/dL
same,ABSOLUTE BASOPHIL,[3],0 CELLS/uL
same,ABSOLUTE EOSINOPHIL,[3],0 CELLS/uL
same,ABSOLUTE LYMPHOCYTE,[3],3351.33 CELLS/uL
same,ABSOLUTE MONOCYTE,[3],14.67 CELLS/uL
same,ABSOLUTE SEGMENTED NEUTROPHIL,[3],800.67 CELLS/uL
same,BASOPHIL,[3],0%
same,EOSINOPHIL,[3],0%
same,ERYTHROCYTE COUNT,[3],5.59 x10E6/uL
same,HEMATOCRIT,[3],34.2%
same,HEMOGLOBIN,[3],12.77 G/DL
same,LEUKOCYTE COUNT,[3],4.17 x10E3/uL
same,LYMPHOCYTE,[3],80.33%
same,MEAN CORPUSCULAR HEMOGLOBIN,[3],22.83 pg
same,MEAN CORPUSCULAR HEMOGLOBIN CONCENTRATION,[3],37.33 G/DL
same,MEAN CORPUSCULAR VOLUME,[3],61.17 fL
same,MONOCYTE,[3],0.33%
same,NEUTROPHIL,[3],19.33%
same,NUCLEATED RED BLOOD CELLS,[3],0.33 /100WBC
same,PLATELET COUNT,[3],792.67 x10E3/uL
same,ALANINE AMINOTRANSFERASE,[3],69.67 u/L
same,ALBUMIN,[3],4.13 G/DL
same,ALKALINE PHOSPHATASE,[3],576 u/L
same,ASPARTATE AMINOTRANSFERASE,[3],110 u/L
same,BLOOD UREA NITROGEN,[3],12.67 mg/dL
same,CARBON DIOXIDE,[3],32.67 mmol/L
same,CHLORIDE,[3],103.33 MEQ/L
same,CHOLESTEROL,[3],94.67 mg/dL
same,CREATINE PHOSPHOKINASE,[3],218 u/L
same,CREATININE,[3],0.12 mg/dL
same,GLUCOSE,[3],132.67 mg/dL
same,LACTATE DEHYDROGENASE,[3],105.33 u/L
same,LIPASE,[3],12.33 u/L
same,PHOSPHORUS,[3],13.73 mg/dL
same,POTASSIUM,[3],7.47 MEQ/L
same,SODIUM,[3],149.43 MEQ/L
same,TOTAL BILIRUBIN,[3],0.13 mg/dL
same,TOTAL PROTEIN,[3],5.8 G/DL
same,URIC ACID,[3],2.43 mg/dL
